Experimental data: PubChem BioAssay (NCI)
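48-hour exposure; five concentrations; linearly interpolated endpoints. GI50: concentration for 50% inhibition of growth. TGI: total growth inhibition.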

Legend:
Test in all cases: NCI anticancer screen, dose series, 48 h; in the data active = GI50 below about 0.43 µM; inactive = the rest
[1] = test system: LOX IMVI melanoma
[2] = test system: SN12C renal
[3] = test system: SNB-75 CNS
[4] = test system: SF-295 CNS
[5] = test system: KM12 colon
[6] = test system: SNB-19 CNS
[7] = test system: SF-268 CNS
[8] = test system: SK-MEL-28 melanoma
[9] = test system: NCI-H226 lung

COc1ccc(C=O)cc1O[Si](C)(C)C(C)(C)C
> 100 µM: TGI [1] | TGI [2] | TGI [3] | TGI [4] | TGI [5] | TGI [6] | TGI [7]

COC(=O)C(=O)CC(=O)CCn1[nH]c(=O)c(Cl)c(Cl)c1=O
> 100 µM: TGI [1] | TGI [2] | TGI [8] | TGI [3] | TGI [4] | TGI [9] | TGI [5] | TGI [6] | TGI [7]

O=C1N/C(=C\[N+](=O)[O-])c2ccccc21
93.3 µM: TGI [3]
> 100 µM: TGI [1] | TGI [2] | TGI [8] | TGI [4] | TGI [9] | TGI [5] | TGI [6] | TGI [7]

CCC[CH2][Sn]([CH2]CCC)([O]C(=O)CN)[O]C(=O)CN
inactive: GI50 [1] 22.1 µM | GI50 [2] 57.2 µM | GI50 [8] 29.2 µM | GI50 [3] 29.6 µM | GI50 [4] 34.5 µM | GI50 [9] > 100 µM | GI50 [5] > 100 µM | GI50 [6] 45.5 µM | GI50 [7] 20.6 µM
> 100 µM: TGI [2] | TGI [8] | TGI [3] | TGI [4] | TGI [9] | TGI [5] | TGI [6]
71.6 µM: TGI [7]
59.7 µM: TGI [1]

COc1cc(NCC(C#N)C#N)ccc1N=Nc1ccc(Cl)cc1
61.6 µM: TGI [6]
90.1 µM: TGI [3]
51.3 µM: TGI [4]
33.4 µM: TGI [5]
> 100 µM: TGI [2] | TGI [9] | TGI [7]
36.1 µM: TGI [1]
80.1 µM: TGI [8]

COc1cc(NS(=O)(=O)c2ccc(C)cc2)c2nccnc2c1
78.1 µM: TGI [3]
> 100 µM: TGI [1] | TGI [2] | TGI [8] | TGI [4] | TGI [9] | TGI [5] | TGI [6]
93.7 µM: TGI [7]

O=C1C=C(Nc2ccccc2C(=O)CC(=O)C(=O)Nc2cccc([N+](=O)[O-])c2)c2ccccc2C1=O
> 100 µM: TGI [8] | TGI [3] | TGI [9] | TGI [5] | TGI [6]
81.8 µM: TGI [2]
23.1 µM: TGI [1]
88.6 µM: TGI [7]

COc1ccc([C@@]2(O)c3c(ccc(O)c3OC)[C@H]2OC)c(OC)c1
> 100 µM: TGI [2] | TGI [8] | TGI [3] | TGI [4] | TGI [9] | TGI [5] | TGI [6] | TGI [7]

N#C/C(=C/c1cccc(Oc2ccccc2)c1)c1ccccc1
> 100 µM: TGI [1] | TGI [2] | TGI [8] | TGI [3] | TGI [4] | TGI [9] | TGI [5] | TGI [7]

CCOC(=O)[CH-]C(=O)C12CC3CC(CC(C3)C1)C2.CCOC(=O)[CH-]C(=O)C12CC3CC(CC(C3)C1)C2.CC[O-].CC[O-].[Ti+4]
> 100 µM: TGI [1] | TGI [2] | TGI [8] | TGI [3] | TGI [4] | TGI [5] | TGI [6] | TGI [7]
inactive: GI50 [1] > 100 µM | GI50 [2] > 100 µM | GI50 [8] > 100 µM | GI50 [3] 36.9 µM | GI50 [4] > 100 µM | GI50 [5] > 100 µM | GI50 [6] > 100 µM | GI50 [7] > 100 µM

CC(=O)Oc1cc2c(cc1OC(C)=O)C1(C)CCC2(C)c2cc(OC(C)=O)c(OC(C)=O)cc21
> 100 µM: TGI [1] | TGI [2] | TGI [8] | TGI [7]
91.7 µM: TGI [3]
22.4 µM: TGI [6]
28.8 µM: TGI [5]
58.8 µM: TGI [4]

O=C(Nc1cccc(O)c1)C(=O)C1C(=O)NC(=S)NC1=O
> 100 µM: TGI [1] | TGI [2] | TGI [8] | TGI [3] | TGI [4] | TGI [9] | TGI [6] | TGI [7]

[N-]=[N+]=NCCCn1c2c(c3ccc([N+](=O)[O-])cc3c1=O)C(=O)c1ccccc1-2
> 100 µM: TGI [1] | TGI [2] | TGI [8] | TGI [4] | TGI [5] | TGI [7]
inactive: GI50 [1] 8.66 µM | GI50 [2] 72.5 µM | GI50 [8] > 100 µM | GI50 [4] 4.82 µM | GI50 [5] > 100 µM | GI50 [7] 79.8 µM

C[C@]12CC=CC(=O)[C@@]1(C)CCC(=O)C2
> 100 µM: TGI [2] | TGI [8] | TGI [3] | TGI [4] | TGI [9] | TGI [5] | TGI [6] | TGI [7]

Cc1ccc(S(=O)(=O)N/N=C2\CCCCC23CCC(=O)NC3)cc1 (configuration not stated)
> 100 µM: TGI [2] | TGI [8] | TGI [3] | TGI [9] | TGI [5] | TGI [6] | TGI [7]

CC(=O)c1ccc(NC(=O)/C(CC(=O)c2sc(-c3cccnc3)nc2C)=N/NC(N)=O)cc1
75.6 µM: TGI [9]
> 100 µM: TGI [1] | TGI [2] | TGI [8] | TGI [4] | TGI [5] | TGI [6] | TGI [7]

Cc1ccc(S(=O)(=O)OC2CC=CC2)cc1
> 100 µM: TGI [1] | TGI [2] | TGI [8] | TGI [3] | TGI [4] | TGI [9] | TGI [5] | TGI [6]

NC(CCCC(N)P(=O)(O)O)P(=O)(O)O (configuration not stated)
> 100 µM: TGI [1] | TGI [2] | TGI [8] | TGI [3] | TGI [4] | TGI [9] | TGI [5]
